Each structure is given as a SMILES string.

T1 sequence (P27487 whole entry): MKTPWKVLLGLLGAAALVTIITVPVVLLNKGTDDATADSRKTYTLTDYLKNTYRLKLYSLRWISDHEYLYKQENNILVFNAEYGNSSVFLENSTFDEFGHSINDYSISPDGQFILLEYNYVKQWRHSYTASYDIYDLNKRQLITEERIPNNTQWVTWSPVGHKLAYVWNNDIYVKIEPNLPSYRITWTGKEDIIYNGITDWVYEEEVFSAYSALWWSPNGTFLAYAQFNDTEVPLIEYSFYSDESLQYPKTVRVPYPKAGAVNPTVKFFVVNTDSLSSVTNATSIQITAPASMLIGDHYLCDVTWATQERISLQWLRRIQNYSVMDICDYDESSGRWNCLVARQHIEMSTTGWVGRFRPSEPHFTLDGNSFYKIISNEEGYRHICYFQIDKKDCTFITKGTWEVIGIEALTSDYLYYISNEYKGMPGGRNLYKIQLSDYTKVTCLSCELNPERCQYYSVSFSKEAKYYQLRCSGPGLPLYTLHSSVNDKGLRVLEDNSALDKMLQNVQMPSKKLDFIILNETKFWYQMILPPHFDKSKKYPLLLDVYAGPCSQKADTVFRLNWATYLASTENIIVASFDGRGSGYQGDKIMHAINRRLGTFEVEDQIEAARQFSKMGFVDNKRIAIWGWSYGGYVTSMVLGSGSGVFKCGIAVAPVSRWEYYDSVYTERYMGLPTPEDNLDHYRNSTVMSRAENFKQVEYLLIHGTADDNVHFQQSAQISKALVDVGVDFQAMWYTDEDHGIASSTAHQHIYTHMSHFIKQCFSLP

The first series concerns rats. As to the kind of experiment: Tolerability in rats after oral administration. In kind it is in vivo. Conditions: oral administration of 10 mg/kg.
As for `CC#CCn1c(N(C)C[C@H](C)N)nc2c1c(=O)n(Cc1nc(C)c3ccccc3n1)c(=O)n2C` [Example 2(4), 1-[(4-methyl-quinazolin-2-yl)methyl]-3-methyl-7-(2-butyn-1-yl)-8-[(S)-(2-amino-propyl)-methylamino]-xanthine], the toxic side effects entry is listed as “no toxic side effects could be detected”.

Another series addresses T1, DPP-IV (Homo sapiens, UniProt P27487).
T1 construct: an extract of the human colon carcinoma cell line Caco-2 is used as the DPP IV source; endogenous in cells; host or cells: Caco-2 (human colon carcinoma), differentiated to induce DPP-IV expression; Nonidet-P40 solubilised extract
As to the kind of experiment: DPP-IV assay with extract of Caco-2 cells as DPP IV source, AFC substrate, fluorescence. Conditions: extract of human colon carcinoma cell line Caco-2; substrate 100 μM; 60 minutes at ambient temperature; read-out: DPP IV inhibition IC50. It counts as biochemical. The protocol:
The differentiation of the cells in order to induce the DPP-IV expression was carried out in accordance with the description by Reiher et al. in an article entitled “Increased expression of intestinal cell line Caco-2”, which appeared in Proc. Natl. Acad. Sci. Vol. 90, pp. 5757-5761 (1993). The cell extract was obtained from cells solubilised in a buffer (10 mM Tris HCl, 0.15 M NaCl, 0.04 t.i.u. aprotinin, 0.5% Nonidet-P40, pH 8.0) by centrifugation at 35,000 g for 30 minutes at 4° C. (to remove cell debris).
The DPP-IV assay was carried out as follows:
50 μl of substrate solution (AFC; AFC is amido-4-trifluoromethylcoumarin), final concentration 100 μM, were placed in black microtitre plates. 20 μl of assay buffer (final concentrations 50 mM Tris HCl pH 7.8, 50 mM NaCl, 1% DMSO) was pipetted in. The reaction was started by the addition of 30 μl of solubilised Caco-2 protein (final concentration 0.14 μg of protein per well). The test substances under investigation were typically added prediluted to 20 μl, while the volume of assay buffer was then reduced accordingly. The reaction was carried out at ambient temperature, the incubation period was 60 minutes. Then the fluorescence was measured in a Victor 1420 Multilabel Counter, with the excitation wavelength at 405 nm and the emission wavelength at 535 nm. Dummy values (corresponding to 0% activity) were obtained in mixtures with no Caco-2 protein (volume replaced by assay buffer), control values (corresponding to 100% activity) were obtained in mixtures without any added substance. The potency of the test substances in question, expressed as IC50 values, were calculated from dosage/activity curves consisting of 11 measured points in each case.
For `CC#CCn1c(N(C)CCN)nc2c1c(=O)n(Cc1nc(C)c3ccccc3n1)c(=O)n2C` [1(1), 1-[(4-methyl-quinazolin-2-yl)methyl]-3-methyl-7-(2-butyn-1-yl)-8-[(2-amino-ethyl)-methylamino]-xanthine], the IC50 amounted to 2 nM. With `CC#CCn1c(N(C)CC(C)(C)N)nc2c1c(=O)n(Cc1nc(C)c3ccccc3n1)c(=O)n2C` [2(1), 1-[(4-methyl-quinazolin-2-yl)methyl]-3-methyl-7-(2-butyn-1-yl)-8-[(2-amino-2-methyl-propyl)-methylamino]-xanthine], the IC50 came to 3 nM. The same measure, in the same setting: as for `CC#CCn1c(N(C)C[C@H](C)N)nc2c1c(=O)n(Cc1ccc3nccnc3c1)c(=O)n2C` [2(10), 1-[(quinoxalin-6-yl)methyl]-3-methyl-7-(2-butyn-1-yl)-8-[(S)-(2-amino-propyl)-methylamino]-xanthine], the figure is 3 nM; as for `CC#CCn1c(N(C)C[C@H](C)N)nc2c1c(=O)n(Cc1ncccc1C#N)c(=O)n2C` [2(11), 1-[(3-cyano-pyridin-2-yl)methyl]-3-methyl-7-(2-butyn-1-yl)-8-[(S)-(2-amino-propyl)-methylamino]-xanthine], 3 nM; as for `CC#CCn1c(N(C)C[C@H](C)N)nc2c1c(=O)n(Cc1ncc3ccccc3c1C#N)c(=O)n2C` [2(12), 1-[(4-cyano-isoquinolin-3-yl)methyl]-3-methyl-7-(2-butyn-1-yl)-8-[(S)-(2-amino-propyl)-methylamino]-xanthine], 2 nM. `CC#CCn1c(N(C)C[C@H](C)N)nc2c1c(=O)n(Cc1nc(C)c3ccccc3n1)c(=O)n2C` [Example 2(4), 1-[(4-methyl-quinazolin-2-yl)methyl]-3-methyl-7-(2-butyn-1-yl)-8-[(S)-(2-amino-propyl)-methylamino]-xanthine]: the IC50 was determined as 2 nM.

Values taken from patent US7495002B2, “3-methyl-7-butinyl-xanthines, the preparation thereof and their use as pharmaceutical compositions” (Boehringer Ingelheim International GmbH, priority 2004, dated 2009).
